Test results published in PMC7876453, “Targeting Indoleamine 2,3-Dioxygenase in Cancer Models Using the Novel Small Molecule Inhibitor NTRC 3883-0” (Frontiers in Immunology, 2021).
pIC50: −log10 of the molar value. Like-named read-outs stand apart in the source and are kept apart here.

Key:
IDO1 [1] = conditions: cited from earlier work
[2] = system: unstimulated adherent cell samples isolated from ascites of ovarian cancer patients; assay: Trp-catabolizing activity in unstimulated ascites cell samples; format: cell-based, human; conditions: for pIC50: Homo sapiens
Protocol: (§1) Ascites was collected from patients with a primary diagnosis of advanced epithelial ovarian cancer during paracentesis for diagnostics or symptom relieve, or during primary debulking surgery. Ascites was filtered and cells were collected by centrifugation as described ([23]). To enrich for tumor cells, ascites cell samples were allowed to adhere overnight to tissue culture plastic. The cell samples were then cultured for 2–3 weeks in advanced RPMI medium (ThermoFisher), supplemented with 10% FBS, 1% glutamax and 1% P/S, with 2 or 3 times passaging of the cells. qPCR analyses of the MUC16, HE4, IDO1, and TDO2 genes were performed for all samples as described above. Five samples which could be cultured over multiple passages were analyzed for cell surface expression of mucin-16 and EpCAM by flow cytometry using FITC-conjugated anti-mucin-16 (AssayPro, #32189-05141) and APC-conjugated anti-EpCAM (Miltenyi, #130-111-117, RRID: AB_2657496) to assure that the cell cultures consisted of malignant cells. IDO1 mRNA and protein levels in these samples were analyzed as described above after incubation with or without 200 ng/ml IFNγ for 24 h. The collection of ascites and the research described was conducted with approval of the medical ethical committee of the Radboud university medical center and informed written consent from each subject.

SW48 (hTDO) = target: T1, SW48 (hTDO) (Homo sapiens, UniProt P48775); assay: cell-based assay, Trp-catabolizing activity in SW48 cells; conditions: Trp-catabolizing activity
T1 construct: host or cells: SW48 cells
T1 sequence (P48775 whole entry): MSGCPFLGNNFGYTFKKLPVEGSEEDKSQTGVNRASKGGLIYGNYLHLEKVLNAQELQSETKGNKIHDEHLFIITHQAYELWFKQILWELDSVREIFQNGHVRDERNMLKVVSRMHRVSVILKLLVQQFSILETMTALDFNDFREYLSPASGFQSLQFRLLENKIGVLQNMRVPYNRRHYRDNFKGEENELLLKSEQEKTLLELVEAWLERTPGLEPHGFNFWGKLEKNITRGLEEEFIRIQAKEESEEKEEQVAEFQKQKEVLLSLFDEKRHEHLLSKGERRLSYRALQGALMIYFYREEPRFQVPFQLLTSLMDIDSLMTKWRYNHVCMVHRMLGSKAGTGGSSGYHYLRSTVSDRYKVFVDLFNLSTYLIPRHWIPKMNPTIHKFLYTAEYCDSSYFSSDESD

[3] = system: B16F10-mIDO1 subline j19 in female B6D2F1 mice; assay: B16F10-mIDO1 syngeneic mouse model, intervention study; format: in vivo; conditions: 100 mg/kg p.o. b.i.d. from day 3
From the text: For development of the mIDO1-overexpressing B16F10 mouse model, performed at Charles River Laboratories, female B6D2F1 mice were implanted subcutaneously with 1 × 10^6 parental B16F10 cells or B16F10-mIDO1 cells (subline i6 or j19) on day 0 with n = 10 mice per group. A tumor volume of 2000 mm^3 was used as the endpoint of the experiment for the individual animals. To determine the optimal inoculation cell concentration, mice were implanted with 3 × 10^5, 1 × 10^5 or 3 × 10^4 parental or mIDO1-overexpressing B16F10 cells (subline j19) with n = 5 mice per group. The same endpoint of the experiment was used as described above. […] For the intervention study, 3 x 10^5 cells of the B16F10-mIDO1 subline j19 were implanted on day 0, and treatment was started on day 3 with vehicle (DMSO, Kolliphor, 5% mannitol; […]. Four animals were excluded from analysis due to non-treatment-related deaths. Tumors and plasma were sampled 2 h post last dose.
[…]. After centrifugation, proteins were removed from the homogenized tissue supernatants and plasma samples by precipitation with methanol. The concentrations of inhibitor, Trp and Kyn were determined by LC-MS/MS.

HEK-hTDO = HEK-hTDO (Homo sapiens, UniProt P48775); assay: cell-based assay, Trp-catabolizing activity in HEK-hTDO cells
Chain of HEK-hTDO (P48775 whole entry): as above

GL-261-mTDO = GL-261-mTDO (Mus musculus, UniProt P48776); assay: cell-based assay, Trp-catabolizing activity in GL-261-mTDO cells; conditions: read-out: inhibition GL-261-mTDO
Chain of GL-261-mTDO (P48776 whole entry): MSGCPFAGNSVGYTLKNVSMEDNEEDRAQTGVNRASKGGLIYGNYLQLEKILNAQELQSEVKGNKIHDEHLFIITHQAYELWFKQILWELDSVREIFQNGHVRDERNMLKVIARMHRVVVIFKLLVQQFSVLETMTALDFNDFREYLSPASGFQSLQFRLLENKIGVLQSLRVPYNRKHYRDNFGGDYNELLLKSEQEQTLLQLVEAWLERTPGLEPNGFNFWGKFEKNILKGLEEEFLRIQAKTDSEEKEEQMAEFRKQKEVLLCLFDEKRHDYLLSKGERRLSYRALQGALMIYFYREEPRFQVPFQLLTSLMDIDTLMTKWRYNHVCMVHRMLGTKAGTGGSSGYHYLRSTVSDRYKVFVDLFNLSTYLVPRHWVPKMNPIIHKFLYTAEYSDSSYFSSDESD

mTDO = target: T2, mTDO (Mus musculus, UniProt P48776); assay: mouse TDO biochemical assay (NFK GreenScreen)
T2 construct: hexahistidine (C); made in house; host or cells: Escherichia coli
T2 sequence (P48776 whole entry): as above
Protocol: (§2) Full-length recombinant human and mouse IDO1 were expressed in Escherichia coli with a hexahistidine tag at the N-terminus, and purified by affinity chromatography to > 95% purity, as described ([8]). Human and mouse TDO containing a C-terminal hexahistidine tag were analogously expressed and purified to > 95% purity ([8]). The inhibitory activity of compounds was determined with the NFK GreenScreen assay technology under the conditions as described ([8]), except for the reaction buffer for IDO1, which was replaced by 50 mM NaH2PO4, pH 7.0, supplemented with 0.01% Tween-20 and 1% glycerol. Inhibition of the CYP3A4 and CYP2D6 enzymes was determined with the P450-Glo™ Screening System with Luciferin-IPA (Promega, #V9920 and V9890). For determination of IC50 values, the effect of inhibitors was determined in 10-point duplicate dose-response curves. Graphs were fitted to a four-parameter logistics equation in XLfit (ID Business Solutions, Ltd., Guildford, UK) from which IC50 values were calculated.

[4] = system: CD8-positive T cells co-cultured with HEK-hIDO1 cells; assay: co-culture assay of HEK-hIDO1 cells with PBMCs, CFSE proliferation; format: cell-based, human; conditions: 7.5 µM Trp; 10 µM NTRC 3883-0, 1 µM epacadostat; 5 days
[5] = system: CT26 cells implanted subcutaneously into female BALB/c mice; assay: CT26 mouse model, first study (ProQinase); format: in vivo; conditions: 50 mg/kg NTRC 3748-0 b.i.d., 100 mg/kg epacadostat q.d.; for Kyn levels in the tumor: LC-MS/MS, 2 h post last dose; for tumor growth: p.o. from day 8
Protocol: For the first CT26 mouse model study, performed at ProQinase, 5 × 10^5 CT26 cells were implanted subcutaneously into female BALB/c mice on day 0. […] Tumor growth was monitored using caliper measurement 2 times weekly. The study was terminated at day 22 based on the tumor burden. Tumors and plasma were sampled 2 h post last dose.
(§3) Tissues were homogenized in PBS at a ratio of 1 mg per 10 μl using micro pellet pestles mounted on a Micro-Tube Homogenizer System (Thomas Scientific). After centrifugation, proteins were removed from the homogenized tissue supernatants and plasma samples by precipitation with methanol. The concentrations of inhibitor, Trp and Kyn were determined by LC-MS/MS.

melanoma patients = conditions: combination with pembrolizumab; cited from earlier work
[6] = system: cell lines used in this study; assay: cell viability assays (ATPlite 1Step); conditions: in parallel with the cell-based assays
human TDO = target: T3, human TDO (Homo sapiens, UniProt P48775); assay: human TDO biochemical assay (NFK GreenScreen)
T3 construct: hexahistidine (C); made in house; host or cells: Escherichia coli
T3 sequence (P48775 whole entry): as the sequence (P48775 whole entry) above
Protocol: as §2

[7] = system: CT26 cells implanted subcutaneously into female BALB/c mice; assay: CT26 mouse model, second study (Charles River); format: in vivo
Protocol: For the second study, performed at Charles River Laboratories, 3 × 10^5 CT26 cells were implanted subcutaneously into female BALB/c mice on day 0. […] Tumor growth was monitored using caliper measurement 3 times weekly. A tumor volume of 2000 mm^3 was used as the endpoint of the experiment for the individual animals. Tumors were sampled 2 h post last dose.
as §3

[8] = system: IFNγ-stimulated adherent cell samples isolated from ascites of ovarian cancer patients; assay: Trp-catabolizing activity in IFNγ-stimulated ascites cell samples; format: cell-based; conditions: Homo sapiens
Protocol: as §1

IDO1 [9] = conditions: cited from earlier work; remark: listed apart in the source
A375 + IFNγ (hIDO1) = target: T4, A375 + IFNγ (hIDO1) (Homo sapiens, UniProt P14902); assay: cell-based assay, Trp-catabolizing activity in IFNγ-stimulated A375 cells; conditions: IFNγ-stimulated A375 human melanoma cells
T4 construct: host or cells: A375 cells stimulated with IFNγ
T4 sequence (P14902 whole entry): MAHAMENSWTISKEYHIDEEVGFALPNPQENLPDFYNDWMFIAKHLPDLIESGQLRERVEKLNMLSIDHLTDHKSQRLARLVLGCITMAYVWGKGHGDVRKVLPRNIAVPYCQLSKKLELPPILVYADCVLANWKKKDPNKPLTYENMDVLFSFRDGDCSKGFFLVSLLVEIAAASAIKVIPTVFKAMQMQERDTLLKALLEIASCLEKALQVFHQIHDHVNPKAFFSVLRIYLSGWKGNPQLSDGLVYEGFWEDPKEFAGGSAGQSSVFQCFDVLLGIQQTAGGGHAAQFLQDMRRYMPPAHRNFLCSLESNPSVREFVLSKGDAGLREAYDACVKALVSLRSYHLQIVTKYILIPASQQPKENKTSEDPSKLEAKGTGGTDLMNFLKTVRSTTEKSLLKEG

human IDO1 = target: T5, human IDO1 (Homo sapiens, UniProt P14902); assay: human IDO1 biochemical assay (NFK GreenScreen); conditions: human IDO1 biochemical assay
T5 construct: Full-length recombinant human and mouse IDO1 were expressed in Escherichia coli with a hexahistidine tag at the N-terminus; hexahistidine (N); made in house; host or cells: Escherichia coli
T5 sequence (P14902 whole entry): as above

Compound: NS(=O)(=O)NCCNc1nonc1C(=NO)Nc1ccc(F)c(Br)c1 [epacadostat, reference compound]
- clinical benefit of the combination over pembrolizumab plus placebo (IDO1 [1]): no clinical benefit
- inhibition of basal Trp-catabolizing activity (in words) [2]: no or only minimal inhibition
- pIC50 ([2]; mean of samples, read-out: IC50 Mean): 5.11
- pIC50 ([2]; read-out: IC50 ASC 010): 5.02
- pIC50 ([2]; read-out: IC50 ASC 013): 5.00
- pIC50 ([2]; read-out: IC50 ASC 031): 5.06
- pIC50 ([2]; read-out: IC50 ASC 041): 5.37
- pIC50 (SW48 (hTDO)): 5.19
- tumor growth corrected for the variation in time until tumor establishment [3]: delay in tumor growth
- tumor growth in comparison to vehicle-treated animals [3]: no effect
- pIC50 (HEK-hTDO): 4.62
- times lower activity on TDO in the HEK-hTDO assay than in the biochemical assay (HEK-hTDO; cell-based versus biochemical TDO IC50): more than 400 times
- inhibition at 31.6 µM (GL-261-mTDO): 28%
- pIC50 (mTDO): 6.65
- effect on IDO1-mediated inhibition of T cell proliferation (in words) [4]: relieved the inhibitory effect
- Kyn levels in the tumor [5]: considerable reduction of Kyn levels
- tumor growth [5]: inhibition of tumor growth
- objective response (melanoma patients): 12 out of 22
- cytotoxicity [6]: not cytotoxic
- pIC50 (human TDO): 7.27
- tumor growth ([7]; 100 mg/kg p.o. b.i.d. from day 8): no inhibition of tumor growth
- Kyn levels in the tumor ([7]; LC-MS/MS, 2 h post last dose, 100 mg/kg p.o. b.i.d.): considerable reduction of Kyn levels
- pIC50 ([8]; IFNγ-stimulated samples, read-out: IC50): 8.08
- pIC50 ([8]; IFNγ-stimulated, read-out: IC50 ASC 009): 8.43
- pIC50 ([8]; IFNγ-stimulated, read-out: IC50 ASC 010): 8.03
- pIC50 ([8]; IFNγ-stimulated, read-out: IC50 ASC 013): 8.05
- pIC50 ([8]; IFNγ-stimulated, read-out: IC50 ASC 031): 8.14
- pIC50 ([8]; IFNγ-stimulated, read-out: IC50 ASC 041): 8.13
- tolerability in human patients (IDO1 [9]): well tolerated

Compound: O=C1CN(C(=O)c2cccc(F)c2)C(c2cccc(Br)c2)N1O (stereo not drawn) [Compound 3b]
- pIC50 (A375 + IFNγ (hIDO1)): 5.28
- pIC50 (human IDO1): 6.04

Compound: O=C1CN(C(=O)c2ccccc2)C(c2ccccc2)N1O (stereo not drawn) [Compound 2a]
- pIC50 (A375 + IFNγ (hIDO1)): < 4.50
- pIC50 (human IDO1): < 4.50

Compound: N#Cc1cccc(C2N(O)C(=O)CN2C(=O)c2ccccc2)c1 (stereo not drawn) [Compound 2f]
- pIC50 (A375 + IFNγ (hIDO1)): < 4.50
- pIC50 (human IDO1): 4.75

Compound: O=C1CN(C(=O)c2c(F)cccc2F)C(c2cccc(Br)c2)N1O (stereo not drawn) [Compound 3j]
- Kyn levels in the tumor [5]: considerable reduction of Kyn levels
- tumor growth [5]: inhibition of tumor growth
- pIC50 (A375 + IFNγ (hIDO1)): 6.23
- pIC50 (human IDO1): 6.70

Compound: O=C1CN(C(=O)c2cc(F)ccc2F)C(c2cccc(Br)c2)N1O (stereo not drawn) [Compound 3h]
- pIC50 (A375 + IFNγ (hIDO1)): 5.55
- pIC50 (human IDO1): 6.22

Compound: O=C1CN(C(=O)c2ccccc2Cl)C(c2cccc(Br)c2)N1O (stereo not drawn) [Compound 3f]
- pIC50 (A375 + IFNγ (hIDO1)): 5.34
- pIC50 (human IDO1): 6.11

Compound: O=C1CN(C(=O)c2ccccc2)C(C2CCCCC2)N1O (stereo not drawn) [Compound 2e]
- pIC50 (A375 + IFNγ (hIDO1)): < 4.50
- pIC50 (human IDO1): < 4.50

Compound: O=C1CN(C(=O)c2ccc(F)cc2)C(c2cccc(Br)c2)N1O (stereo not drawn) [Compound 3a]
- pIC50 (A375 + IFNγ (hIDO1)): 4.96
- pIC50 (human IDO1): 5.66

Compound: O=C1CN(C(=O)c2ccccc2)C(c2ccc(Br)cc2)N1O (stereo not drawn) [Compound 2d]
- pIC50 (A375 + IFNγ (hIDO1)): < 4.50
- pIC50 (human IDO1): < 4.50

Compound: O=C1CN(C(=O)c2ccc(F)cc2F)C(c2cccc(Br)c2)N1O (stereo not drawn) [Compound 3i]
- pIC50 (A375 + IFNγ (hIDO1)): 5.67
- pIC50 (human IDO1): 6.24
